Paper PMC8465942, “Cyano- and Ketone-Containing Selenoesters as Multi-Target Compounds against Resistant Cancers” (Cancers, 2021)
Values joined by “and” are separate entries in the source; they are usually repeats but may differ in a detail not shown here. Identical values can stand only once. Marks after values point to notes of the source that are not given here.

Columns and labels:
[1] = molecular target: ABCB1 (P-glycoprotein) in Colo 320 colonic adenocarcinoma cells (Homo sapiens, UniProt P08183); assay: ABCB1 inhibition, rhodamine 123 accumulation by flow cytometry; details: for FAR (fluorescence activity ratio): rhodamine 123, FAR above 2 considered effective
ABCB1 (P-glycoprotein) in Colo 320 colonic adenocarcinoma cells, sequence (P08183 whole entry): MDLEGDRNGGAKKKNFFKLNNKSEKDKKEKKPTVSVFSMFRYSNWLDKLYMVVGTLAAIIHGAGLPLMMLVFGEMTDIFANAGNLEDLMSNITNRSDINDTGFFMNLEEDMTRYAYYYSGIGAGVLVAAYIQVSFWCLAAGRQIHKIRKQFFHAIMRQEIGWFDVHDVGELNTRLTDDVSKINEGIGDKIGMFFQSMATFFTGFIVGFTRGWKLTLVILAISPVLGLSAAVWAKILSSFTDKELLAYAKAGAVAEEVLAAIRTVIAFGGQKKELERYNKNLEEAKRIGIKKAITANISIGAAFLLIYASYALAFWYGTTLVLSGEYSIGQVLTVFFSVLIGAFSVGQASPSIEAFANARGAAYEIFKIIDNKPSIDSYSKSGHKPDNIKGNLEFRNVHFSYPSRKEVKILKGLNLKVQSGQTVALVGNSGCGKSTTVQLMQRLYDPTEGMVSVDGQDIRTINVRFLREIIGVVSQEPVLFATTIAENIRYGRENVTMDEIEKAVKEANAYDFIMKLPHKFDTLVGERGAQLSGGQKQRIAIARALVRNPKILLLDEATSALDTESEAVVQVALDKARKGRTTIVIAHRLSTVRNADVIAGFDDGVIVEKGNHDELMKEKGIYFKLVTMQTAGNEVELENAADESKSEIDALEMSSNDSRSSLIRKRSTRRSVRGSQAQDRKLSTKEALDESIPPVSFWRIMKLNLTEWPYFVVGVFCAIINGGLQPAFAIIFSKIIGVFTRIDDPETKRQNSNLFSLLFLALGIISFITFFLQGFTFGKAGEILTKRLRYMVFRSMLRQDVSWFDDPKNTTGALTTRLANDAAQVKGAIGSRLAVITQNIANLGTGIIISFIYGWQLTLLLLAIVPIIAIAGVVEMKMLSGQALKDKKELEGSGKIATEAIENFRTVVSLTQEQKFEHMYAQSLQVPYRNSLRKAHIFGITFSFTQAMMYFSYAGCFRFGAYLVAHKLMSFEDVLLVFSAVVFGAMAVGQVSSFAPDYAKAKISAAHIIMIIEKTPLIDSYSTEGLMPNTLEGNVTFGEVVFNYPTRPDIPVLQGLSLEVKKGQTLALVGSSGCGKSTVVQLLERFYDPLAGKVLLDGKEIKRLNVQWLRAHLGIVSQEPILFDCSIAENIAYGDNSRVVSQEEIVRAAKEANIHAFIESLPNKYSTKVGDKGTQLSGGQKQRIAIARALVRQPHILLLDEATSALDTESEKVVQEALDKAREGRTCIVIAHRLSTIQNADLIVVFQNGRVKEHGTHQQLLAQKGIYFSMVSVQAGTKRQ
Protocol: The inhibition of the ABCB1 multidrug efflux pump ABCB1 by the tested compounds was evaluated using flow cytometry, measuring the retention of rhodamine 123 by ABCB1 (P-glycoprotein) in Colo 320 colonic adenocarcinoma cells. Briefly, the cell number of colonic adenocarcinoma cells were adjusted to 2 × 10^6 cells/mL, re-suspended in serum-free RPMI-1640 medium in the case of colonic adenocarcinoma cells, and distributed in 0.5 mL aliquots into Eppendorf centrifuge tubes. The tested compounds were added at different concentrations (0.2 and 2 µM; from 1 and 10 mM stock solutions, respectively), and the samples were incubated for 10 min at room temperature. Tariquidar was applied as the positive control (0.2 µM final concentration), and DMSO was used as the solvent control (at 2 v/v%). Next, 10 µL (5.2 µM final concentration) of the fluorochrome rhodamine 123 (Sigma, St. Louis, MO, USA) was added to the samples and the cells were incubated for 20 min at 37 °C. After the incubation period, the cells were washed twice and re-suspended in 0.5 mL PBS for analysis. The fluorescence of the gated cell population was measured with a Partec CyFlow® flow cytometer (Partec, Münster, Germany). The percentage of the mean fluorescence intensity was calculated for the treated MDR cells as compared with the untreated cells. The results were obtained from a representative flow cytometry experiment in which at least 20,000 individual cells of the overall population were evaluated for the rhodamine 123 retained inside the cells. The fluorescence activity ratio (FAR) was calculated based on the following equation, which relates the measured fluorescence values: FAR=Colo320treated / Colo320control/Colo205treated / Colo205control
The parameters evaluated from flow cytometry experiments were: Forward Scatter Count (FSC, provides information about cell size); Side Scatter Count (SSC, proportional to cell granularity or internal complexity); FL-1 (Mean fluorescence of the cells), and Fluorescence Activity Ratio (FAR), which was calculated by the equation given above.

[2] = tested on: MDR Colo 320 adenocarcinoma cells; assay: Apoptosis induction (Annexin V-FITC / propidium iodide); assay type: cell-based, human; details: 2 µM
Protocol: The assay was carried out using an Annexin V-FITC Apoptosis Detection Kit Cat. No. PF 032 from Calbiochem (EMD Biosciences. Inc. La Jolla. CA), according to the manufacturer's instructions. […] The cell suspension was distributed into 1 mL aliquots (1 × 10^6 cells) into a 24-well microplate and incubated overnight at 37 °C, with 5% CO2. On the following day, the medium was removed and a fresh medium was added to the cells. The cells were incubated in the presence of Se-compounds for 3 h at 37 °C. […] After a 3 h induction period, the culture medium was removed, the cells were washed with PBS, and a fresh medium was added to the cells. The 24-well plates were incubated overnight at 37 °C, with 5% CO2. After the incubation, the supernatant was collected in a microfuge tube and 200 μL of 0.25 trypsin (Trypsin-Versene) was added to the wells until the cells detached from the surfaces of the wells. The cells were centrifuged at 2000× g for 2 min at room temperature, the supernatant was removed, and the cells were re-suspended in fresh serum-free medium. After this procedure, apoptosis assay was carried out according to the rapid protocol of the kit using Annexin V-FITC and propidium iodide staining. […] The data were analysed by FlowJo^TM software (BD Biosciences, San Jose, NJ, USA).

B16 (skin melanoma) = assay: Cytotoxicity on B16 cells; assay type: cell-based, murine; details: ratio IC50 non-tumour cells / IC50 cancer cells
HaCaT cell line = assay: Toxicity on HaCaT cells (IC10 used as dose); assay type: cell-based; details: Homo sapiens, concentration inhibiting 10% of the population, highest non-toxic concentration, read-out: Dose IC10
Protocol: The activity of selenoesters was tested on several cancer cell lines, including HepG2 (hepatocellular carcinoma, CCL-23TM, ATCC); HeLa (cervical adenocarcinoma, CCL-2TM, ATCC); B16 (skin melanoma, CCL-6322TM, ATCC); and a non-cancerous cell line, HDF (human dermal fibroblasts, Sigma-Aldrich). HepG2, HeLa, B16, and HDF cell lines were cultivated in EMEM medium supplemented with 10% FBS, 2 mM L-glutamine, and 1% penicillin-streptomycin mixture. The HaCaT cell line was cultivated in DMEM medium supplemented with 10% FBS and 1% penicillin-streptomycin mixture. All of the cells were cultivated in a CO2 incubator (5% CO2, 37 °C). Twice per week, the cell lines were passaged according to a standardized protocol with a trypsin-EDTA solution. […]
Wound healing activity of selenoesters was evaluated as the ability of the cells to migrate and close the gap created on the monolayer of human keratinocytes (HaCaT cell line). The tested substances were applied in the highest possible non-toxic concentration (IC10, concentration inhibiting 10% of the population). In general, ketone-selenoesters were more toxic (except K4 and K1) than cyano-selenoesters (except N4); therefore, they were applied at lower doses (0.17–0.30 µM) when compared to cyanoselenoesters (0.36–0.64 µM). Compounds K1, K4, and N4 were applied at a concentration of 0.30, 0.46, and 0.20 µM, respectively. As could be seen in Table 8, all ketone-selenoesters stimulated wound healing more effectively in comparison to both untreated control (p < 0.0000005) and allantoin (p < 0.00005). […] Only samples N1, N2, N4, and N7 closed effectively the damaged wound in 24 h, with the gap closure around 70%.

[3] = tested on: HepG2 (hepatocellular carcinoma); assay: Cytotoxicity on HepG2 cells; assay type: cell-based, human; details: ratio IC50 non-tumour cells / IC50 cancer cells

Row | Compound | SI MRC-5/B16 (B16 (skin melanoma)) | IC10 (HaCaT cell line) [µM] | SI MRC-5/HepG2 [3] | melting point [°C] | further results
1 | CC(=O)C[Se]C(=O)c1ccc(F)c(Cl)c1 [K6, Se-(2-Oxopropyl) 3-Chloro-4-fluorobenzoselenoate] | 2.8 | 0.22 |  |  | FSC (Forward Scatter Count) ([1]; 0.2 µM): 1996; SSC (Side Scatter Count) ([1]; 0.2 µM): 873; FAR (fluorescence activity ratio) ([1]; 0.2 µM): 1.48; FSC (Forward Scatter Count) ([1]; 2 µM): 1833; SSC (Side Scatter Count) ([1]; 2 µM): 1043; FAR (fluorescence activity ratio) ([1]; 2 µM): 29.4 and 29.42; Total Apoptotic Events (Early + Late, %) [2]: 32.3%; Cell Death (%) Treated Sample-Untreated Sample ([2]; 3 h induction): 0.17%; Early Apoptosis (%) Treated Sample-Untreated Sample ([2]; 3 h induction): 4.5%; Late Apoptosis (%) Treated Sample-Untreated Sample ([2]; 3 h induction): 27.8%; Apoptosis Quotient (%) ([2]; total apoptotic events relative to reference M627 (20 µM)): 65.4%
2 | N#CC[Se]C(=O)c1cccc(F)c1 [N2, Se-(Cyanomethyl) 3-Fluorobenzoselenoate] | >6 * | 0.36 | >6 * |  | 
3 | N#CC[Se]C(=O)c1ccc(Br)cc1 [N3, Se-(Cyanomethyl) 4-Bromobenzoselenoate] | >6 * | 0.64 | >6 * | 105 to 107 | 
4 | N#CC[Se]C(=O)c1ccccc1C(F)(F)F [N4, Se-(Cyanomethyl) 2-(Trifluoromethyl)benzoselenoate] |  | 0.2 | >6 * | 65 to 67 | 
5 | N#CC[Se]C(=O)c1cc(C(F)(F)F)cc(C(F)(F)F)c1 [N7, Se-(Cyanomethyl) 3,5-Bis(trifluoromethyl)benzoselenoate] |  | 0.61 | >6 * | 63 to 65 | 
